ChEMBL document CHEMBL3991601, “The target landscape of clinical kinase drugs” (Science, 2017)
Activity calls are given as the source filed them. Cut-off read from the data, not from the text of the source, for most assays here: actives have a measured Kd and inactives only a lower limit.

Legend:
[1] = target: cAMP-dependent protein kinase catalytic subunit alpha (Homo sapiens, UniProt P17612)
[2] = target: Cyclin-dependent kinase 7 (Homo sapiens, UniProt P50613)
[3] = target: Mitogen-activated protein kinase 3 (Homo sapiens, UniProt P27361)
GTP-binding protein 4 = GTP-binding protein 4 (Homo sapiens, UniProt Q9BZE4)
Adenosine kinase = Adenosine kinase (Homo sapiens, UniProt P55263)
[4] = target: T1, DNA replication licensing factor MCM4 (Homo sapiens, UniProt P33991)
T1 sequence (P33991 whole entry): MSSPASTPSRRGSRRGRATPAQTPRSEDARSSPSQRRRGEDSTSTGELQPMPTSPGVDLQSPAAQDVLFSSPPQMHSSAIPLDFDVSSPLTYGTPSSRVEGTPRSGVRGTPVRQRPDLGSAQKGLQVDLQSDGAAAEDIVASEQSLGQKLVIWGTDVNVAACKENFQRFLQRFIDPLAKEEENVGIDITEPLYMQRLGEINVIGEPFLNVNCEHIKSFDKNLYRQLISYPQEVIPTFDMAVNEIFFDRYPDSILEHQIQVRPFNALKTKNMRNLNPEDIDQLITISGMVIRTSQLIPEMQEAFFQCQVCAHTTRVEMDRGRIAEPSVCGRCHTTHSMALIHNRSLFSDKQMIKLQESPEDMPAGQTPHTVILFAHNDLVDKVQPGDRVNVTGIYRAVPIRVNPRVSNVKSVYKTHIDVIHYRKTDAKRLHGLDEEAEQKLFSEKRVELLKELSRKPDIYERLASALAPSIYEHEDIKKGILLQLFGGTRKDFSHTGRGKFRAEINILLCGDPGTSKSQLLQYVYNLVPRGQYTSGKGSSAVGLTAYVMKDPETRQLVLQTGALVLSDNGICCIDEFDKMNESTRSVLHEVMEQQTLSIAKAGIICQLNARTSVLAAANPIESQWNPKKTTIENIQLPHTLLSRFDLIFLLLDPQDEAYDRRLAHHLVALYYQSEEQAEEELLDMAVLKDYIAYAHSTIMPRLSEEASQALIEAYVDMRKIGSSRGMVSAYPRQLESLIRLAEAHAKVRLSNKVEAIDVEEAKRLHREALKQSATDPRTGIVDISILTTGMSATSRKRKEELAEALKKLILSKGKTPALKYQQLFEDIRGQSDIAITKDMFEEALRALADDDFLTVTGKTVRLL

[5] = target: Protein kinase C beta type (Homo sapiens, UniProt P05771)
[6] = target: High affinity nerve growth factor receptor (Homo sapiens, UniProt P04629)
[7] = target: T2, Inhibitor of nuclear factor kappa-B kinase subunit epsilon (Homo sapiens, UniProt Q14164)
T2 sequence (Q14164 whole entry): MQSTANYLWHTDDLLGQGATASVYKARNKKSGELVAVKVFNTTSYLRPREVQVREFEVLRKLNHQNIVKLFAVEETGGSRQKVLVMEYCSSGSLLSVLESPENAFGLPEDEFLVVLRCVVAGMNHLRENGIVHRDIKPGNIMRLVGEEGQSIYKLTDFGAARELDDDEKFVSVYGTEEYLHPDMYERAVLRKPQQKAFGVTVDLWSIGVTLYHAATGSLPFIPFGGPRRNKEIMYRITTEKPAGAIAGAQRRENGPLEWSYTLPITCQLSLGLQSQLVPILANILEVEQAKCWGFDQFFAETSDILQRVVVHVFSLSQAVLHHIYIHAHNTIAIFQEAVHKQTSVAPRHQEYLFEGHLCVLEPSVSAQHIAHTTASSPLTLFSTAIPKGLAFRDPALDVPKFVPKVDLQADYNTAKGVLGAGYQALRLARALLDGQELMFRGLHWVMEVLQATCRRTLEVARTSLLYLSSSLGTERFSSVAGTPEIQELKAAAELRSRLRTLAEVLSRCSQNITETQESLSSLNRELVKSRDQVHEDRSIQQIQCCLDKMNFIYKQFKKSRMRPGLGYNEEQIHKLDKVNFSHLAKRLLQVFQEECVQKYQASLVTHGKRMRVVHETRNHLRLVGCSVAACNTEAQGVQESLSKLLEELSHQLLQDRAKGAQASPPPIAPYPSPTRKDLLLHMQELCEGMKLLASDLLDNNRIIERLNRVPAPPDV

[8] = target: Tyrosine-protein kinase HCK (Homo sapiens, UniProt P08631)
[9] = target: T3, Serine/threonine-protein kinase TAO1 (Homo sapiens, UniProt Q7L7X3)
T3 sequence (Q7L7X3 whole entry): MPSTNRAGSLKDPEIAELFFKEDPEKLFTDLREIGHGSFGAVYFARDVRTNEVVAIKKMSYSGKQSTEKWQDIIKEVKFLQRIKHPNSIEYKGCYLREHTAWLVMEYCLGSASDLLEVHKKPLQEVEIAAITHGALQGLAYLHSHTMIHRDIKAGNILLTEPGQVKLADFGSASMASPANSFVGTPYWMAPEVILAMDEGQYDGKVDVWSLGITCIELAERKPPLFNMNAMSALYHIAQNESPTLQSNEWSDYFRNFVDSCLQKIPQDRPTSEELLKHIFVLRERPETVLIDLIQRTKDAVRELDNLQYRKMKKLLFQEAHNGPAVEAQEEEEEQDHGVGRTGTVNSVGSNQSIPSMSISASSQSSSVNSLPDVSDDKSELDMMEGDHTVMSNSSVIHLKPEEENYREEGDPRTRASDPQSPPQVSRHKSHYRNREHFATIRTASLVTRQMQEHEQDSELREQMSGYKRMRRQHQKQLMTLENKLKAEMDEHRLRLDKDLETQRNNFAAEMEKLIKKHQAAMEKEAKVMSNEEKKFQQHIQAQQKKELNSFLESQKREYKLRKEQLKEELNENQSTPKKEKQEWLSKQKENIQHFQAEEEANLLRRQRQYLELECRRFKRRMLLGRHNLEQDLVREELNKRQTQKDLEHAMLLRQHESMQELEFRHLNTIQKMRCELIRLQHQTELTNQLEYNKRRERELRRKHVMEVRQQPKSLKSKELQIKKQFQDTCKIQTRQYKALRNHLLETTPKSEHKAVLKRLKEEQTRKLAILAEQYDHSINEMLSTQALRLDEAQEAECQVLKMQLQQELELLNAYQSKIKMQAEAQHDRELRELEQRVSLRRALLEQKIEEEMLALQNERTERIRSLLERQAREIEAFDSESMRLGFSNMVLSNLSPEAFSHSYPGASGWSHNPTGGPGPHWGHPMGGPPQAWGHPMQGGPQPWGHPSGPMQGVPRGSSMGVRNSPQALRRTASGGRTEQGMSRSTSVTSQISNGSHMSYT

Measured: Kd
Note: in the data inactive means no Kd found up to 30 µM.

Tyrosine-protein kinase HCK, sequence (P08631 whole entry): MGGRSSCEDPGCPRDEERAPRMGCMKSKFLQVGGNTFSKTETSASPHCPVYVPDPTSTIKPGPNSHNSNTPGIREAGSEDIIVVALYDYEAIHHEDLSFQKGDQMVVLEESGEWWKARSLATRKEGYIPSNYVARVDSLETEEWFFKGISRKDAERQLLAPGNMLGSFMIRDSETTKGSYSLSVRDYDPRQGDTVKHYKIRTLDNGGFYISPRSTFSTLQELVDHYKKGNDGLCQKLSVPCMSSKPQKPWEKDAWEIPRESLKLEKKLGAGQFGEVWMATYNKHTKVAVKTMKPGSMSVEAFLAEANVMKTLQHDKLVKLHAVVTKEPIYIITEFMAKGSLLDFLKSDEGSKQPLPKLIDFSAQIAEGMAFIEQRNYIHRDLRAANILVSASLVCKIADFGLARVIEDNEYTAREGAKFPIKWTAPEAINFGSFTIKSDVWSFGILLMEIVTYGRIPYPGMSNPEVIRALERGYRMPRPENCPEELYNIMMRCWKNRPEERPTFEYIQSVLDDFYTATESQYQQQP
Cyclin-dependent kinase 7, sequence (P50613 whole entry): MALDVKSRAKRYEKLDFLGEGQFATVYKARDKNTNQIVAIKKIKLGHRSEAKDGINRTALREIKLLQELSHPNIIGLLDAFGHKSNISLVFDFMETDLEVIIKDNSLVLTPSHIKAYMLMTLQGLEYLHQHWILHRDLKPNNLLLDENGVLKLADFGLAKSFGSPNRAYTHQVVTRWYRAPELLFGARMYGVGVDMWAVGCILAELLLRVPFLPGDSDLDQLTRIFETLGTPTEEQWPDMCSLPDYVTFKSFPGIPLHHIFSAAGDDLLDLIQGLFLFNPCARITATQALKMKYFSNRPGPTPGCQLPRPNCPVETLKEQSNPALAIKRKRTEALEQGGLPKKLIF
Mitogen-activated protein kinase 3, sequence (P27361 whole entry): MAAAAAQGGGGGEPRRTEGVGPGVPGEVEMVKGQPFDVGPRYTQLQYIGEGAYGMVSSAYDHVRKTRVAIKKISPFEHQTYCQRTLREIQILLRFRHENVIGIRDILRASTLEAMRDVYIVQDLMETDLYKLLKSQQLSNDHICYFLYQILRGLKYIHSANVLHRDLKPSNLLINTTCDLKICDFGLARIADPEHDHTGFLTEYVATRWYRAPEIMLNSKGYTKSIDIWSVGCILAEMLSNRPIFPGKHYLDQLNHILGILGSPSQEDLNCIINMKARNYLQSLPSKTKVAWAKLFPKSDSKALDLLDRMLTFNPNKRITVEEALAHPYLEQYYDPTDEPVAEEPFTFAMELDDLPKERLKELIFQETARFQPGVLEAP
Protein kinase C beta type, sequence (P05771 whole entry): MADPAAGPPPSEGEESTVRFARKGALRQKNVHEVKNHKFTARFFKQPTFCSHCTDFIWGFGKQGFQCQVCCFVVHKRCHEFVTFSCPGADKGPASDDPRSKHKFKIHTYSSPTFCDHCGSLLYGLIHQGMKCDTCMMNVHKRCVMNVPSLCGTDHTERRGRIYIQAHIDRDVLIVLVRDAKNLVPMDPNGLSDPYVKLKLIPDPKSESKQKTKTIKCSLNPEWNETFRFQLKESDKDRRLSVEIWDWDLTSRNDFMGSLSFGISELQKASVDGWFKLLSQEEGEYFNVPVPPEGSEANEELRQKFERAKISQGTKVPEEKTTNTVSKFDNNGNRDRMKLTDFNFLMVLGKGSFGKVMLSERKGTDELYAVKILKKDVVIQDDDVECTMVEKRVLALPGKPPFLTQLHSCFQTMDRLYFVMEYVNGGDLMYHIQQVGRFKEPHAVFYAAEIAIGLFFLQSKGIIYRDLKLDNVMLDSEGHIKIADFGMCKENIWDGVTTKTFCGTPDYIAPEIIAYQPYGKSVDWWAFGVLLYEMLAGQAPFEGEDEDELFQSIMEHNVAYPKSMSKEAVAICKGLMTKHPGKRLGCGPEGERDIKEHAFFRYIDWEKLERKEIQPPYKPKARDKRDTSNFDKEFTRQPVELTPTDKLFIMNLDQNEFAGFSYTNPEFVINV
High affinity nerve growth factor receptor, sequence (P04629 whole entry): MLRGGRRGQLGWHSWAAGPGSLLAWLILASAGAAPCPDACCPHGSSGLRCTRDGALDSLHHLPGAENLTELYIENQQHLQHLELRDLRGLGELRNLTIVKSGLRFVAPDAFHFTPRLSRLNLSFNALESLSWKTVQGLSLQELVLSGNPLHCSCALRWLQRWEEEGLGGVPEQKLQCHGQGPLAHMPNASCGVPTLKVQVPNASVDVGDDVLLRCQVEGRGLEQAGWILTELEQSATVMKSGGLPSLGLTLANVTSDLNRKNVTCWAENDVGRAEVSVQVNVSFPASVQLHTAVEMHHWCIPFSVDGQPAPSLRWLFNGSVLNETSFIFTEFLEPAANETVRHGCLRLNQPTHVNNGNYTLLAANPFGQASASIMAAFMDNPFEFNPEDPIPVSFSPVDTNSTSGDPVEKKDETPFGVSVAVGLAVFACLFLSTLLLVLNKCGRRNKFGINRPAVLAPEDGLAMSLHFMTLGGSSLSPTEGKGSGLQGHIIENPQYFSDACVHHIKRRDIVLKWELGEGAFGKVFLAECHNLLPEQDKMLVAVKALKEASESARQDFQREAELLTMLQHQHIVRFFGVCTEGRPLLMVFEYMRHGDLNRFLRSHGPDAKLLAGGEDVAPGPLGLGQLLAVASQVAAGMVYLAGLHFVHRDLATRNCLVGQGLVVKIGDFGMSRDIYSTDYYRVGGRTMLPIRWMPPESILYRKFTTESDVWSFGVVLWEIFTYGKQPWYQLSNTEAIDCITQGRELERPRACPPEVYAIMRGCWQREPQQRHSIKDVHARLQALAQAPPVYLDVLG
Adenosine kinase, sequence (P55263 whole entry): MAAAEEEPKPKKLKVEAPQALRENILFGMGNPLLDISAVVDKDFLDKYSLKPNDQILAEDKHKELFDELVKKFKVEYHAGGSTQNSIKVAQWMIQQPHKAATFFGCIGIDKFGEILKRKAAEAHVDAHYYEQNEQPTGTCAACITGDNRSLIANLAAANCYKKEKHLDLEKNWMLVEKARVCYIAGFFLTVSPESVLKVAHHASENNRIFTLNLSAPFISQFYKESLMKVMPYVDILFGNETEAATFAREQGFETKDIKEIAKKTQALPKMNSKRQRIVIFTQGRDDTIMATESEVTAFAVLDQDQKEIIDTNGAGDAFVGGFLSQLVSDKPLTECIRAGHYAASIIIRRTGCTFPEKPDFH

Cc1cc(C(=O)NOCCO)c(Nc2ccc(I)cc2F)n(C)c1=O [AZD-8330]
inactive: [1] > 30 µM | [2] > 30 µM | [3] > 30 µM | GTP-binding protein 4 > 30 µM | Adenosine kinase > 30 µM | [4] > 30 µM | [5] > 30 µM | [6] > 30 µM | [7] > 30 µM | [8] > 30 µM | [9] > 30 µM

Cn1cnc2c(F)c(Nc3ccc(Br)cc3F)c(C(=O)NOCCO)cc21 [BINIMETINIB]
inactive: [1] > 30 µM | [2] > 30 µM | [3] > 30 µM | GTP-binding protein 4 > 30 µM | Adenosine kinase > 30 µM | [4] > 30 µM | [5] > 30 µM | [6] > 30 µM | [7] > 30 µM | [8] > 30 µM | [9] > 30 µM

COc1cc2ncnc(Oc3cccc(NC(=O)Nc4cc(C(C)(C)C(F)(F)F)on4)c3)c2cc1OC [CEP-32496]
inactive: [1] > 30 µM | [2] > 30 µM | [3] > 30 µM | GTP-binding protein 4 > 30 µM | Adenosine kinase > 30 µM | [4] > 30 µM | [5] > 30 µM | [6] > 30 µM | [7] > 30 µM | [8] > 30 µM | [9] > 30 µM

Cc1cc(Nc2ncc(Cl)c(Nc3ccccc3S(=O)(=O)C(C)C)n2)c(OC(C)C)cc1C1CCNCC1 [CERITINIB]
inactive: [1] > 30 µM | [2] > 30 µM | [3] > 30 µM | GTP-binding protein 4 > 30 µM | Adenosine kinase > 30 µM | [4] > 30 µM | [5] > 30 µM | [6] > 30 µM | [7] > 30 µM | [8] > 30 µM | [9] > 30 µM

COc1c(OCCCN2CCOCC2)ccc2c1N=C(NC(=O)c1cnc(N)nc1)N1CCN=C21 [COPANLISIB]
inactive: [1] > 30 µM | [2] > 30 µM | [3] > 30 µM | GTP-binding protein 4 > 30 µM | Adenosine kinase > 30 µM | [4] > 30 µM | [5] > 30 µM | [6] > 30 µM | [7] > 30 µM | [8] > 30 µM | [9] > 30 µM

COCC(=O)NC/C=C/c1ccc2ncnc(Nc3ccc(Oc4ccc(C)nc4)c(C)c3)c2c1 [CP-724714]
inactive: [1] > 30 µM | [2] > 30 µM | [3] > 30 µM | GTP-binding protein 4 > 30 µM | Adenosine kinase > 30 µM | [4] > 30 µM | [5] > 30 µM | [6] > 30 µM | [7] > 30 µM | [8] > 30 µM | [9] > 30 µM

C#Cc1cccc(Nc2ncnc3cc(OC)c(OCCCCCCC(=O)NO)cc23)c1 [CUDC-101]
inactive: [1] > 30 µM | [2] > 30 µM | [3] > 30 µM | GTP-binding protein 4 > 30 µM | Adenosine kinase > 30 µM | [4] > 30 µM | [5] > 30 µM | [6] > 30 µM | [7] > 30 µM | [8] > 30 µM | [9] > 30 µM

O=C(Nc1nc2cccc(-c3ccc(CN4CCS(=O)(=O)CC4)cc3)n2n1)C1CC1 [FILGOTINIB]
inactive: [1] > 30 µM | [2] > 30 µM | [3] > 30 µM | GTP-binding protein 4 > 30 µM | Adenosine kinase > 30 µM | [4] > 30 µM | [5] > 30 µM | [6] > 30 µM | [7] > 30 µM | [8] > 30 µM | [9] > 30 µM

Cc1cccc(-c2nn3c(c2-c2ccnc4ccc(C(N)=O)cc24)CCC3)n1 [GALUNISERTIB]
inactive: [1] > 30 µM | [2] > 30 µM | [3] > 30 µM | GTP-binding protein 4 > 30 µM | Adenosine kinase > 30 µM | [4] > 30 µM | [5] > 30 µM | [6] > 30 µM | [7] > 30 µM | [8] > 30 µM | [9] > 30 µM
